# Patent US5183821A, “Method for treating leukemias using N-(2-dimethylaminoethyl)-3-amino-1,8-naphthalimide for treating leukemias and solid tumors” (priority 1991, dated 1993)
# Entries after “also recorded” stand apart in the source; their conditions may differ.
# Tests used:
# B16 Melanocarcinoma = test: Experiment 17: B16 i.p., saline with Tween-80, female; assay type: in vivo, Mouse B6C3F1
# Text: Tumor: B16 Melanocarcinoma
# (§1) Inoculum Site: Intraperitoneal
# Tissue: Homogenate (or brei), tumor
# (§2) Vehicle: Saline with Tween-80
# (§3) Treatment schedule (relative to tumor inoculation day): daily on days 1-9
# (§4) Day of evaluation (relative to tumor inoculation day): 60
# (§5) Parameter: Median survival time (MST) in days
# (§6) NCI minimal activity criteria: Percent T/C≥125
# (§7) Percent T/C: Ratio of test (T) evaluation to control (C) evaluation expressed as a percentage
# L-1210 Lymphoid leukemia [1] = test: Experiment 8: L-1210 s.c., 10^6 cells, acid diluted with saline, female; assay type: in vivo, Mouse CD2 F (CDF1)
# Text: Tumor: L-1210 Lymphoid leukemia
# (§8) Inoculum Site: Subcutaneous
# (§9) Vehicle: Acid diluted with saline
# Treatment schedule (relative to tumor inoculation day) daily on days 1-9
# (§10) Day of evaluation (relative to tumor inoculation day): 30
# as §5, §6, §7
# L-1210 Lymphoid Leukemia [2] = test: NCI screen, L-1210 Lymphoid Leukemia, subcutaneous (summary); assay type: in vivo, Mouse
# Text: (§11) The activity of the compound has been evaluated by experiments carried out under the auspices of the Division of Cancer Treatment, National Cancer Institute, employing techniques considered to be reliable indicators of chemotherapeutic utility in the treatment of forms of cancer in human patients. The details of the methodology employed in the reported experiments may be determined with reference to established NCI screening methods. In the experiments conducted by the NCI, evaluation of activity is made on the basis of appropriate parameters, such as median survival time (MST) or change in average tumor diameter (CATD)in ocular micrometer units (OMU).
# Colon 38 [3] = test: Experiment 13: Colon 38 s.c., saline with Tween-80, male; assay type: in vivo, Mouse B6 D2 F1 (BDF1)
# Text: (§12) Host: Mouse B6 D2 F1 (BDF1)
# as §8, §2
# (§13) Treatment schedule (relative to tumor inoculation day): Days 2 and 9
# (§14) Day of evaluation (relative to tumor inoculation day): 20
# (§15) Parameter: Median tumor weight (MTW) estimated from tumor diameter
# (§16) NCI minimal activity criteria: Percent T/C≤42
# as §7
# M5076 ovarian carcinoma [4] = test: Experiment 21: M5076 i.p., 10^6 cells, acid diluted with saline, female; assay type: in vivo, Mouse
# Text: Tumor: M5076 ovarian carcinoma
# as §1, §9
# Treatment schedule (relative to tumor inoculation day): every 4 days for 4 times
# as §4
# Parameter: Mean survival time (MST) in days
# NCI minimal activity criteria: Percent T/C≥125.
# Percent T/C: Ratio of test (T) evaluation to control (C) evaluation expressed as a percentage.
# [5] = test system: P 388 Lymphocytic leukemia; test: Experiment 10: P388 i.p., 10^6 cells, saline with Tween-80, male; assay type: in vivo, Mouse CD2F1 (CDF1)
# Text: Tumor: P 388 Lymphocytic leukemia
# as §1, §2, §3, §10, §5
# (§17) NCI minimal activity criteria: Percent T/C≥120
# as §7
# [6] = assay type: physicochemical
# Text: (§18) Stability: The reconstituted solution is stable for 14 days at room temperature. When further diluted 200-fold with normal saline the drug remains stable for 14 days at both room and refrigeration temperatures. The reconstituted solution is not stable when further diluted with 5% dextrose in water so this vehicle will not be used for infusions of the drug. Storage: The intact vials should be stored under refrigeration.
# as §18, with “saline the drugs remains stable” for “saline the drug remains stable”
# M5076 ovarian carcinoma [7] = test: NCI screen, M5076 ovarian carcinoma, intraperitoneal (summary); assay type: in vivo, Mouse; settings: for Antitumor activity in words: M5076
# Text: as §11
# Colon 38 [8] = test: Experiment 15: Colon 38 s.c., saline with Tween-80, female; assay type: in vivo, Mouse B6 D2 F1 (BDF1)
# Text: as §12, §8, §2, §13, §14, §15, §16, §7
# [9] = test system: P388 Lymphocytic leukemia; test: Experiment 11: P388 i.p., 10^6 cells, saline with Tween-80, female; assay type: in vivo, Mouse CD2 F1 (CDF1)
# Text: Host: Mouse CD2 F1 (CDF1)
# Tumor: P388 Lymphocytic leukemia
# as §1, §2, §3, §10, §5, §17, §7
# [10] = 16.00 mg/kg i.p., control MTW outside normal limits
# [11] = 32.00 mg/kg i.p., control MTW outside normal limits
# [12] = 64.00 mg/kg i.p., control MTW outside normal limits
smiles,measurement,setting,value
"CN(C)CCN1C(=O)c2cccc3cc(N)cc(c23)C1=O [Example 9, 1H-Benz[de]isoquinoline-1,3(2H)-dione, 5-amino-2-[2-(dimethylamino)ethyl]]",Median survival time (MST),B16 Melanocarcinoma; 1.00 mg/kg i.p.,18.8 days
same,Percent T/C,B16 Melanocarcinoma; 1.00 mg/kg i.p.,102%
same,Median survival time (MST),B16 Melanocarcinoma; 2.00 mg/kg i.p.,17.0 days
same,Percent T/C,B16 Melanocarcinoma; 2.00 mg/kg i.p.,102%
same,Median survival time (MST),B16 Melanocarcinoma; 4.00 mg/kg i.p.,20.0 days
same,Percent T/C,B16 Melanocarcinoma; 4.00 mg/kg i.p.,120%
same,Median survival time (MST),B16 Melanocarcinoma; 8.00 mg/kg i.p.,19.4 days
same,Percent T/C,B16 Melanocarcinoma; 8.00 mg/kg i.p.,116%
same,Median survival time (MST),B16 Melanocarcinoma; 16.00 mg/kg i.p.,22.9 days
same,Percent T/C,B16 Melanocarcinoma; 16.00 mg/kg i.p.,137%
same,Median survival time (MST),B16 Melanocarcinoma; 32.00 mg/kg i.p.,7.0 days
same,Median survival time (MST),L-1210 Lymphoid leukemia [1]; 5.00 mg/kg i.p.,9.0 days
same,Percent T/C,L-1210 Lymphoid leukemia [1]; 5.00 mg/kg i.p.,105%
same,Median survival time (MST),L-1210 Lymphoid leukemia [1]; 7.00 mg/kg i.p.,9.8 days
same,Percent T/C,L-1210 Lymphoid leukemia [1]; 7.00 mg/kg i.p.,110%
same,Median survival time (MST),L-1210 Lymphoid leukemia [1]; 10.00 mg/kg i.p.,10.7 days
same,Percent T/C,L-1210 Lymphoid leukemia [1]; 10.00 mg/kg i.p.,125%
same,Median survival time (MST),L-1210 Lymphoid leukemia [1]; 16.00 mg/kg i.p.,12.3 days
same,Percent T/C,L-1210 Lymphoid leukemia [1]; 16.00 mg/kg i.p.,144%
same,Median survival time (MST),L-1210 Lymphoid leukemia [1]; 24.00 mg/kg i.p.,31.3 days
same,Percent T/C,L-1210 Lymphoid leukemia [1]; 24.00 mg/kg i.p.,132%
same,Table II evaluation,"L-1210 Lymphoid Leukemia [2]; median survival time, 16 tests, full wrapped cell: Activity substantially greater than the minimal",Activity
same,Antitumor activity in words,L-1210 Lymphoid Leukemia [2]; s.c. implanted L1210,active
same,Median tumor weight (MTW),Colon 38 [3]; 16.00 mg/kg i.p.,2474
same,Percent T/C,Colon 38 [3]; 16.00 mg/kg i.p.,102%
same,Median tumor weight (MTW),Colon 38 [3]; 32.00 mg/kg i.p.,1146
same,Percent T/C,Colon 38 [3]; 32.00 mg/kg i.p.,47%
same,Median tumor weight (MTW),Colon 38 [3]; 64.00 mg/kg i.p.,700
same,Percent T/C,Colon 38 [3]; 64.00 mg/kg i.p.,29%
same,Median tumor weight (MTW),Colon 38 [3]; 128.00 mg/kg i.p.,Deaths before evaluation
same,Mean survival time (MST),M5076 ovarian carcinoma [4]; 4.50 mg/kg i.p.,"29,0 days"
same,Percent T/C,M5076 ovarian carcinoma [4]; 4.50 mg/kg i.p.,109%
same,Mean survival time (MST),"M5076 ovarian carcinoma [4]; 9,00 mg/kg i.p.","28,7 days"
same,Percent T/C,"M5076 ovarian carcinoma [4]; 9,00 mg/kg i.p.",107%
same,Mean survival time (MST),"M5076 ovarian carcinoma [4]; 18,00 mg/kg i.p.","30,8 days"
same,Percent T/C,"M5076 ovarian carcinoma [4]; 18,00 mg/kg i.p.",115%
same,Mean survival time (MST),"M5076 ovarian carcinoma [4]; 36,00 mg/kg i.p.","37,0 days"
same,Percent T/C,"M5076 ovarian carcinoma [4]; 36,00 mg/kg i.p.",139%
same,Mean survival time (MST),"M5076 ovarian carcinoma [4]; 72,00 mg/kg i.p.",Toxic.
same,Median survival time (MST),[5]; 2.00 mg/kg i.p.,13.3 days
same,Percent T/C,[5]; 2.00 mg/kg i.p.,135%
same,Median survival time (MST),[5]; 4.00 mg/kg i.p.,14.0 days
same,Percent T/C,[5]; 4.00 mg/kg i.p.,142%
same,Median survival time (MST),[5]; 8.00 mg/kg i.p.,17.3 days
same,Percent T/C,[5]; 8.00 mg/kg i.p.,176%
same,Median survival time (MST),[5]; 16.00 mg/kg i.p.,13.0 days
same,Percent T/C,[5]; 16.00 mg/kg i.p.,132%
same,Median survival time (MST),[5]; 32.00 mg/kg i.p.,6.1 days
same,stability of reconstituted solution,[6],14 days
same,"stability, diluted 200-fold with normal saline",[6],14 days
same,"stability, diluted with 5% dextrose in water",[6],not stable
same,Antitumor activity in words,M5076 ovarian carcinoma [7]; listed as BIDA,Activity was seen
same,Antitumor activity in words,M5076 ovarian carcinoma [7]; listed as the compound,activity substantially greater than the level considered to be of minimal interest; also recorded: exceeded the minimal level of activity for clinical interest
same,Table II evaluation,"M5076 ovarian carcinoma [7]; mean survival time, 15 tests, full wrapped cell: Activity Substantially greater than the minimal",Activity
same,Median tumor weight (MTW),Colon 38 [8]; [10],2261
same,Percent T/C,Colon 38 [8]; [10],108%
same,Median tumor weight (MTW),Colon 38 [8]; [11],1440
same,Percent T/C,Colon 38 [8]; [11],69%
same,Median tumor weight (MTW),Colon 38 [8]; [12],368
same,Percent T/C,Colon 38 [8]; [12],17%
same,Median tumor weight (MTW),Colon 38 [8]; 128.00 mg/kg i.p.,Deaths before evaluation
same,Median survival time (MST),[9]; 8.00 mg/kg i.p.,17.0 days
same,Percent T/C,[9]; 8.00 mg/kg i.p.,144%
same,Median survival time (MST),[9]; 16.00 mg/kg i.p.,21.0 days
same,Percent T/C,[9]; 16.00 mg/kg i.p.,177%
same,Median survival time (MST),[9]; 32.00 mg/kg i.p.,7.3 days
same,Median survival time (MST),[9]; 65.00 mg/kg i.p.,6.4 days
